“Also recorded” adds a separate entry of the source. Read-outs that look alike come from different tables or passages of the source. Each block holds one compound with its values, some of them ahead of it. Bridge positions count the residues as written; N and C are the ends. Square brackets hold non-standard residues; d marks the D form. Primed or numbered codes have the meaning given here. Peptide text beside a SMILES is read from it. * marks the point of attachment. C20 diacid = O=C(O)CCCCCCCCCCCCCCCCCCC(=O)*; Hyp = O=C(O)[C@@H]1C[C@@H](O)CN1; Trx′ = not defined here; AEEA = NCCOCCOCC(=O)O
Key:
human amylin receptor = molecular target: T1, human amylin receptor (Homo sapiens, UniProt O60896+P30988); experiment: Luciferase assay of amylin derivatives in amylin receptor/CRE-luc CHO cell line; assay type: cell-based; conditions: EC50, CHO-K1/Ga15/AMY3 CRE-luc cells, 24 hours incubation, F12 medium containing 10% FBS
T1 construct: host or cells: CHO-K1/Ga15/AMY3 cells, further stably transfected with a CRE-luciferase plasmid
T1 sequence (P30988 25-474): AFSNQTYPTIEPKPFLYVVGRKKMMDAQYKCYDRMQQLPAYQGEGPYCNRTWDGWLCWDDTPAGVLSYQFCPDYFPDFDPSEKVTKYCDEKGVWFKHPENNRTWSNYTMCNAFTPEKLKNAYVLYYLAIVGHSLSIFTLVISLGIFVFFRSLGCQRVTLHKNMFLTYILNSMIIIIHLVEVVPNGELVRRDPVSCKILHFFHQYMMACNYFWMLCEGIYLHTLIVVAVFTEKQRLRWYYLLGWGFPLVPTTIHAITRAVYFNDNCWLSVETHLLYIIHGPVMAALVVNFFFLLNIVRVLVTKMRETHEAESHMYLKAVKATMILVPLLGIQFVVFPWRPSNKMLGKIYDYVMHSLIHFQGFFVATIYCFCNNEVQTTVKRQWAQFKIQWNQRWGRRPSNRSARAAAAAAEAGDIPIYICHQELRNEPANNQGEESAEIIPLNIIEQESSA
T1 sequence (O60896 24-148 partner): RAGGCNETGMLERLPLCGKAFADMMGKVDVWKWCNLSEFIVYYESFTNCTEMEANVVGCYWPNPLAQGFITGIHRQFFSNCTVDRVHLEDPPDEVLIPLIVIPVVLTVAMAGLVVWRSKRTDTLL
Experimental: The experiment was intended to detect the activity or efficacy of the amylin derivatives on a human amylin receptor in vitro by luciferase assay.
50 μL of growth medium (F12 medium containing 10% FBS) was added into each well of a white 96-well plate, and the stably transfected amylin/CRE-lue CHO cells were inoculated into the white 96-well plate at a density of about 20,000 cells/well for activity determination.

[1] = Freeze-thaw stability of derivatives (freeze-thaw yield by liquid chromatography); assay type: physicochemical; conditions: for Dissolution property: appearance after dissolution at 0.2 mg/ml in 20 mM phosphate buffer solution (PB) (pH 7.0); for Freeze storage property: appearance after overnight storage at −20° C. and thawing to room temperature, 0.2 mg/ml in 20 mM PB (pH 7.0); for Freeze storage yield: concentration of polypeptide after freezing and thawing / concentration before, by liquid chromatography, −20° C. overnight
Method in brief: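 Freeze-thaw yield is the ratio of peptide concentration after versus before one overnight −20° C freeze and room-temperature thaw, both quantified by RP-HPLC of supernatant after centrifugation. Samples were 0.2 mg/ml freeze-dried derivative in 20 mM PB, pH 7.0.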

[2] = assay type: physicochemical; conditions: 40° C.
Experimental: The penicillin bottle after covering was placed in a stability test box at 40° C. Before testing, a sample was centrifuged at 10,000 rpm and 4° C. for 3 minutes, and a supernatant was taken and added into a liquid-phase sample injection bottle. The sample was detected by the liquid phase method in Example 3.

[3] = Weight loss efficacy of derivatives in SD rats (Example 5); assay type: in vivo, SD (Sprague Dawley) rats; conditions: subcutaneous, 30 nmol/kg
From the text: SD (Sprague Dawley) rats weighing 200 g to 250 g were selected for this experimental study. Before the experiment, the rats arrived for at least 10 days to 14 days to adapt to the experimental environment. During this period, the rats were fed for two weeks in a reversed light/dark stage (meaning that the light was turned off during the day and turned on during the night) after arrival, and were fed separately in the first week of arrival to ensure accurate data and high test sensitivity, and the rats were free to obtain food and water during the whole adaptation period and experimental period. There were an experimental group [NT]5 and A6, and an experimental group B: B1, B2, B3, B4 and B5, with 5 to 8 rats in each treatment group of the derivative, and the rats in each group were subcutaneously administered with a derivative or a solvent by a dosage of 30 nmol/kg. The administration time of each group was recorded. After administration, the rats were put back into their cages in which the rats could get food and water. Food consumption and weight changes of the rats were recorded every 24 hours by online recording or manual recording. Weight and food intake changes of the SD rats in each group were as shown in FIG. 2A to FIG. 2D, Table 9 and Table 10.

[4] = Weight loss effect of dosage of derivatives in SD rats (Example 6); assay type: in vivo; conditions: subcutaneous
Experimental: SD rats obtained by the same method as in Example 5 were used in this experimental study. There were an experimental group C: C1 to C13, and an experimental group D: D1 to D7, with 5 to 8 rats in each group of the derivative test, and according to administration schemes as shown in Table 11 and Table 12, the rats in each group […] The administration time of each group was recorded. After administration, the rats were put back into their cages in which the rats could get food and water. Food consumption and weight changes of the rats were recorded every 24 hours by online recording or manual recording. Weight and cumulative food intake changes of the SD rats in each group were as shown in FIG. 3A to FIG. 3D, FIG. 4A to FIG. 4B, Table 11 and Table 12.

[5] = Study on fatty acid side chain of derivatives, weight reduction in SD rats (Example 7); assay type: in vivo; conditions: subcutaneous, 30 nmol/kg
From the text: SD rats obtained by the same method as in Example 5 were used in this experimental study. There were an experimental group E: for testing weight reduction effects of the compounds PD065 and PD187, and an experimental group F: for testing the compounds PD065, PD071, PD140, PD144, PD145, PD146 and PD147, with 5 to 8 rats in each group of the derivative test, and the rats in each group were subcutaneously administered with a derivative or a solvent by a dosage of 30 nmol/kg. The administration time of each group was recorded. After administration, the rats were put back into their cages in which food and water available for the rats were placed. Food consumption and weight changes of the rats were recorded every 24 hours by online recording or manual recording.

[6] = experimental group C, 10 nmol/kg
[7] = experimental group C, 30 nmol/kg
[8] = experimental group C, 100 nmol/kg
[9] = experimental group D, 10 nmol/kg
[10] = experimental group D, 30 nmol/kg
[11] = experimental group D, 100 nmol/kg

Compound: CC[C@H](C)[C@H](NC(=O)[C@@H]1CCCN1C(=O)CNC(=O)[C@H](Cc1ccccc1)NC(=O)[C@H](CC(N)=O)NC(=O)[C@H](CC(N)=O)NC(=O)[C@H](CO)NC(=O)[C@H](CO)NC(=O)[C@H](Cc1c[nH]cn1)NC(=O)[C@H](CCCNC(=N)N)NC(=O)[C@H](CC(C)C)NC(=O)[C@H](Cc1ccccc1)NC(=O)[C@H](CCC(=O)O)NC(=O)[C@H](C)NC(=O)[C@H](CC(C)C)NC(=O)[C@H](CCCNC(=N)N)NC(=O)[C@H](CCC(N)=O)NC(=O)[C@@H](NC(=O)[C@H](C)NC(=O)[C@@H]1CSSC[C@H](NC(=O)[C@H](CCCCN)NC(=O)CC[C@H](NC(=O)CCCCCCCCCCCCCCCCCCC(=O)O)C(=O)O)C(=O)N[C@@H](CC(N)=O)C(=O)N[C@@H]([C@@H](C)O)C(=O)N[C@@H](C)C(=O)N[C@@H]([C@@H](C)O)C(=O)N1)[C@@H](C)O)C(=O)N[C@@H](CC(C)C)C(=O)N1CCC[C@H]1C(=O)N1CCC[C@H]1C(=O)N[C@H](C(=O)N[C@@H](CC(N)=O)C(=O)N[C@H](C(=O)NCC(=O)N[C@@H](CO)C(=O)N[C@@H](CC(N)=O)C(=O)N[C@H](C(=O)N1CCC[C@H]1C(N)=O)[C@@H](C)O)C(C)C)[C@@H](C)O [PD065, Cagrilintide]
EC50 (human amylin receptor): 0.038 nM
Dissolution property [1]: Clear
Freeze storage property [1]: Clear
Freeze storage yield [1]: 93.44%
Decrease percentage of protein concentration ([2]; pH about 7.4, 0 d): 0.00%
Protein concentration ([2]; pH about 7.4, 0 d): 0.81 mg/mL
Decrease percentage of protein concentration ([2]; pH about 7.4, 7 d): 22.35%
Protein concentration ([2]; pH about 7.4, 7 d): 0.63 mg/mL
Decrease percentage of protein concentration ([2]; pH about 7.4, 15 d): 46.78%
Protein concentration ([2]; pH about 7.4, 15 d): 0.43 mg/mL
Weight change rate at 48th hour ([3]; experimental group A): −6.13
Weight change rate at 48th hour ([3]; experimental group B): −6.74
Cumulative food intake at 72nd hour [4, 6]: 78.31 g
Weight change rate at 72nd hour [4, 6]: 1.59%
Cumulative food intake at 72nd hour [4, 7]: 60.22 g
Weight change rate at 72nd hour [4, 7]: 0.46%
Cumulative food intake at 72nd hour [4, 8]: 44.41 g
Weight change rate at 72nd hour [4, 8]: −6.61%
Cumulative food intake at 72nd hour [4, 9]: 64.27 g
Weight change rate at 72nd hour [4, 9]: 5.95%
Cumulative food intake at 72nd hour [4, 10]: 48.00 g
Weight change rate at 72nd hour [4, 10]: 2.81%
Cumulative food intake at 72nd hour [4, 11]: 33.89 g
Weight change rate at 72nd hour [4, 11]: −3.81%

EC50 (human amylin receptor): 0.016 nM
Compound: CC[C@H](C)[C@H](NC(=O)[C@@H]1CCCN1C(=O)[C@H](CCCCN)NC(=O)[C@H](CC(C)C)NC(=O)[C@H](CC(N)=O)NC(=O)[C@H](CC(N)=O)NC(=O)[C@H](CO)NC(=O)[C@H](CO)NC(=O)[C@H](Cc1c[nH]cn1)NC(=O)[C@H](CCCNC(=N)N)NC(=O)[C@H](CC(C)C)NC(=O)[C@H](Cc1ccccc1)NC(=O)[C@H](CC(=O)O)NC(=O)[C@H](C)NC(=O)[C@H](CC(C)C)NC(=O)[C@H](CCCNC(=N)N)NC(=O)[C@H](CCC(N)=O)NC(=O)[C@@H](NC(=O)[C@H](C)NC(=O)[C@@H]1CSSC[C@H](NC(=O)[C@H](CCCCN)NC(=O)COCCOCCNC(=O)COCCOCCNC(=O)CCCCCCCCCCCCCCCCCCC(=O)O)C(=O)N[C@@H](CC(N)=O)C(=O)N[C@@H]([C@@H](C)O)C(=O)N[C@@H](C)C(=O)N[C@@H]([C@@H](C)O)C(=O)N1)[C@@H](C)O)C(=O)N[C@@H](CC(C)C)C(=O)N1CCC[C@H]1C(=O)N1CCC[C@H]1C(=O)N[C@H](C(=O)N[C@@H](CC(N)=O)C(=O)N[C@H](C(=O)NCC(=O)N[C@@H](CO)C(=O)N[C@@H](CC(N)=O)C(=O)N[C@H](C(=O)N1C[C@H](O)C[C@H]1C(N)=O)[C@@H](C)O)C(C)C)[C@@H](C)O [PD187] ({C20 diacid-AEEA-AEEA}-KCNTATCATQRLADFLRHSSNNLKPILPPTNVGSNT[Hyp]-NH2; disulfide 2-7 (inferred))
activity (weight reduction effect) compared with PD065 [5]: better than that of the PD065; also recorded: better weight reduction effect

Compound: PD146: KCNTATCATQRLADFLRHSSNNLKPILPPTNVGSNT-trans-Hyp-NH2; N-terminal; Trx + C20 diacid ({C20 diacid-Trx′}-KCNTATCATQRLADFLRHSSNNLKPILPPTNVGSNT-{trans‑Hyp-NH2}; disulfide 2-7 (inferred); reading uncertain; also: printed as KCNTATCATQRLADFLRHSSNNLKPILPPTNVGSNT-trans-Hyp-NH2)
Dissolution property [1]: Clear
Freeze storage property [1]: Clear
Freeze storage yield [1]: 101.09%
activity (weight reduction effect) compared with PD065 [5]: better than that of the PD065
